Test results from patent US5460697A, “Method of pulping wood chips with a fungi using sulfite salt-treated wood chips” (priority 1994, dated 1995).
Like-named read-outs stand apart in the source and are kept apart here.

Columns and labels:
[1] = test system: indigenous microorganisms; assay: Effect of sulfite salts on indigenous microorganisms of unsterilized wood chips (plating); type: cell-based, indigenous microorganisms of unsterilized aspen wood chips; conditions: for inhibition at 600 µg/mL / inhibition at 1200 µg/mL: read-out: Inhibition Relative to control; for first test: whether the salt inhibits growth of indigenous microorganisms: pass / not pass; for inhibition of growth of indigenous microorganisms (in words): unsterilized wood chips, overall statement
Method: Aspen wood chips (50 g O.D. basis) were soaked in 500 ml of water containing either 0 mg, 781 mg or 1562 mg sodium bisulfite for about 1 hour at room temperature. After soaking, water was drained from the chips.
During the 1 hour soaking the chips soaked up about 31 ml of water. Therefore, the final moisture content of wood was about 61% (wet weight basis) and the final concentration of each chemical on water basis was about 0 μg/ml, 600 μg/ml and 1200 μg/ml.
Three chips were pulled randomly from each flask and plated on potato dextrose agar and tryptic soy agar plates. These plates were incubated at 27° C. for 24 or 27 h and the contaminants were visually observed.
A panel of other sulfur-containing chemicals were analyzed for their ability to inhibit the growth of indigenous microorganisms on unsterilized wood chips in the manner described above. Table 2 describes the various concentrations of these chemicals and the percent inhibition relative to control plates observed.

[2] = test system: indigenous microorganisms; conditions: Lamar et al. 1990; cited from earlier work

| Structure (SMILES) | Inhibition Relative to control ([1]; 600 μg/ml) [%] | Inhibition Relative to control ([1]; 1200 μg/ml) [%] | first test: whether the salt inhibits growth of indigenous microorganisms [1] | other results |
| --- | --- | --- | --- | --- |
| O=S(=O)(O)SSS(=O)(=O)O [Sodium Tetrathionate] |  |  |  | inhibition at 600 µg/mL [1]: 0%; inhibition at 1200 µg/mL [1]: 0% |
| O=S([O-])[O-].[Na+].[Na+] [Sodium Sulfite] | 0 | 0 | did not pass the test |  |
| CBr [methyl bromide] |  |  |  | inhibition of indigenous microorganisms (in words) [2]: inhibit a number of indigenous microorganisms |
| O=S(O)S(=O)(=O)O [Sodium meta-Bisulfite] |  |  | passed the first test | inhibition at 600 µg/mL ([1]; 600 μg/ml): 100%; inhibition at 1200 µg/mL ([1]; 1200 μg/ml): 100%; inhibition of growth of indigenous microorganisms (in words) [1]: successfully inhibited the growth of microorganisms |
| O=S([O-])([O-])=S.[Na+].[Na+] [Sodium Thiosulfate] | 0 | 0 |  |  |
| O=S([O-])O.[K+] [potassium bisulfite] |  |  | passed the first test |  |
| O=S(=O)([O-])[O-].[Na+].[Na+] [Sodium Sulfate] | 0 | 0 | did not pass the test |  |
| O=S([O-])S(=O)[O-].[Na+].[Na+] [Sodium Hydrosulfite] |  |  | passed the first test | inhibition at 600 µg/mL [1]: 70%; inhibition at 1200 µg/mL [1]: 100%; inhibition of growth of indigenous microorganisms (in words) [1]: successfully inhibited the growth of microorganisms |
